# Read-outs that look alike come from different tables or passages of the source.
# How the values were obtained:
# Assay type in all cases: cell-based
# MST4 = test system: MST4
# PKD2 = test system: PKD2
# MELK = test system: MELK
# CAMK4 = test system: CAMK4
# PEK = test system: PEK
# ULK3 = test system: ULK3
# PIK3CG = test system: PIK3CG
# RSK2 domain2 = test system: RSK2 domain2
# MSK1 domain1 = test system: MSK1 domain1
# FGR = test system: FGR
# ROCK1, ROCK2 = test: KiNativ kinase profiling in A375 cells; details: Lys2, SEQ ID NO 163, 1.0 μM
# CDK7 = test system: CDK7
# CDK4 = test system: CDK4
# NEK7 = test system: NEK7
# IKKe = test system: IKKe
# ITPK1 = test system: ITPK1
# WEE1 = test system: WEE1
# TLK2 = test system: TLK2
# BTK = test system: BTK
# DGKH = test system: DGKH
# PHKG2 = test system: PHKG2
# ZAP70 = test system: ZAP70
# PDK1 = test system: PDK1
# CDK6 = test system: CDK6
# CDK11, CDK8 = test: KiNativ kinase profiling in A375 cells; details: Lys2, SEQ ID NO 20, 1.0 μM
# Wnk1, Wnk2, Wnk3 = test: KiNativ kinase profiling in A375 cells; details: Lys2, SEQ ID NO 194, 1.0 μM
# GCN2 = test system: GCN2
# MAP2K1 = test system: MAP2K1
# LATS2 = test system: LATS2
# CK1a = test system: CK1a
# NEK8 = test system: NEK8
# IKKb = test system: IKKb
# MST3 = test system: MST3
# ERK1 = test system: ERK1
# FES = test system: FES
# PRP4 = test system: PRP4
# STK33 = test system: STK33
# [1] = test system: ZC1/HGK, ZC2/TNIK, ZC3/MINK; test: KiNativ kinase profiling in A375 cells; details: Lys2, SEQ ID NO 198, 1.0 μM
# MLK4 = test system: MLK4
# MER, TYRO3 = test: KiNativ kinase profiling in A375 cells; details: Activation Loop, SEQ ID NO 102, 1.0 μM
# MET = test system: MET
# PLK1 = test system: PLK1
# [2] = test system: 260 kinases in A375 cells; details: 1.0 μM
smiles,measurement,setting,value
"CCN1CCN(Cc2ccc(NC(=O)c3ccc(C)c(Oc4cc(N)ncn4)c3)cc2C(F)(F)F)CC1 [(A-4), 3-((6-aminopyrimidin-4-yl)oxy)-N-(4-((4-ethylpiperazin-1-yl)methyl)-3-(trifluoromethyl)phenyl)-4-methylbenzamide]",inhibition of kinase labeling,MST4,6.2%
same,inhibition of kinase labeling,PKD2,−6.9%
same,inhibition of kinase labeling,MELK,−19.6%
same,inhibition of kinase labeling,CAMK4,5.9%
same,inhibition of kinase labeling,PEK,9.4%
same,inhibition of kinase labeling,ULK3,−4.4%
same,inhibition of kinase labeling,PIK3CG,−21.1%
same,inhibition of kinase labeling,RSK2 domain2,−24.1%
same,inhibition of kinase labeling,MSK1 domain1,5.7%
same,inhibition of kinase labeling,FGR,31.9%
same,inhibition of kinase labeling,"ROCK1, ROCK2",22.0%
same,inhibition of kinase labeling,CDK7,3.9%
same,inhibition of kinase labeling,CDK4,17.4%
same,inhibition of kinase labeling,NEK7,−7.2%
same,inhibition of kinase labeling,IKKe,−9.9%
same,inhibition of kinase labeling,ITPK1,1.2%
same,inhibition of kinase labeling,WEE1,23.2%
same,inhibition of kinase labeling,TLK2,7.1%
same,inhibition of kinase labeling,BTK,−18.8%
same,inhibition of kinase labeling,DGKH,−6.3%
same,inhibition of kinase labeling,PHKG2,15.2%
same,inhibition of kinase labeling,ZAP70,49.2%
same,inhibition of kinase labeling,PDK1,18.8%
same,inhibition of kinase labeling,CDK6,13.1%
same,inhibition of kinase labeling,"CDK11, CDK8",50.0%
same,inhibition of kinase labeling,"Wnk1, Wnk2, Wnk3",0.2%
same,inhibition of kinase labeling,GCN2,20.8%
same,inhibition of kinase labeling,MAP2K1,11.4%
same,inhibition of kinase labeling,LATS2,−1.9%
same,inhibition of kinase labeling,CK1a,−0.6%
same,inhibition of kinase labeling,NEK8,−11.4%
same,inhibition of kinase labeling,IKKb,−12.6%
same,inhibition of kinase labeling,MST3,−3.7%
same,inhibition of kinase labeling,ERK1,−9.0%
same,inhibition of kinase labeling,FES,89.1%
same,inhibition of kinase labeling,PRP4,−20.1%
same,inhibition of kinase labeling,STK33,12.9%
same,inhibition of kinase labeling,[1],19.2%
same,inhibition of kinase labeling,MLK4,−1.7%
same,inhibition of kinase labeling,"MER, TYRO3",1.6%
same,inhibition of kinase labeling,MET,−21.0%
same,inhibition of kinase labeling,PLK1,−9.1%
"CCN1CCN(Cc2ccc(NC(=O)c3ccc(C)c(Oc4ccnc(Nc5cnn(C)c5)n4)c3)cc2C(F)(F)F)CC1 [(A-14), N-(4-((4-ethylpiperazin-1-yl)methyl)-3-(trifluoromethyl)phenyl)-4-methyl-3-((2-((1-methyl-1H-pyrazol-4-yl)amino)pyrimidin-4-yl)oxy)benzamide]",KiNativ inhibition,"[2]; AKT2, AKT3, ATP Loop, SEQ ID NO 204",−19.7%
same,KiNativ inhibition,"[2]; AMPKa1, AMPKa2, Lys2, SEQ ID NO 205",−17.5%
same,KiNativ inhibition,"[2]; AurA, AurB, AurC, ATP Loop, SEQ ID NO 211",−2.4%
same,KiNativ inhibition,"[2]; CDK11, CDK8, Lys2, SEQ ID NO 224",49.2%
same,KiNativ inhibition,"[2]; CK1g1, CK1g2, CK1g3, ATP Loop, SEQ ID NO 235",1.3%
same,KiNativ inhibition,"[2]; CK1d, CK1e, Lys2, SEQ ID NO 234",−9.3%
same,KiNativ inhibition,"[2]; JNK1, JNK2, JNK3, Lys2, SEQ ID NO 276",31.5%
same,KiNativ inhibition,"[2]; KSR1, KSR2, Activation Loop, SEQ ID NO 280",1.4%
same,KiNativ inhibition,"[2]; MAP2K1, MAP2K2, Lys1, SEQ ID NO 289",9.4%
same,KiNativ inhibition,"[2]; MAP2K1, MAP2K2, Lys2, SEQ ID NO 290",2.2%
same,KiNativ inhibition,"[2]; MAP3K2, MAP3K3, Lys2, SEQ ID NO 299",8.4%
same,KiNativ inhibition,"[2]; MARK2, MARK3, Lys2, SEQ ID NO 304",−15.6%
same,KiNativ inhibition,"[2]; MARK3, MARK4, Lys1, SEQ ID NO 306",−7.5%
same,KiNativ inhibition,"[2]; MAST1, MAST2, Lys2, SEQ ID NO 308",−24.8%
same,KiNativ inhibition,"[2]; MER, TYRO3, Activation Loop, SEQ ID NO 313",21.2%
same,KiNativ inhibition,"[2]; MST4, YSK1, Lys2, SEQ ID NO 325",−2.4%
same,KiNativ inhibition,"[2]; MYO3A, MYO3B, Lys2, SEQ ID NO 326",22.9%
same,KiNativ inhibition,"[2]; NEK6, NEK7, Lys2, SEQ ID NO 333",−1.8%
same,KiNativ inhibition,"[2]; PCTAIRE2, PCTAIRE3, Lys1, SEQ ID NO 346",72.9%
same,KiNativ inhibition,"[2]; PI4KA, PI4KAP2, ATP, SEQ ID NO 353",2.1%
same,KiNativ inhibition,"[2]; PKCa, PKCb, Lys2, SEQ ID NO 364",−86.4%
same,KiNativ inhibition,"[2]; ROCK1, ROCK2, Lys2, SEQ ID NO 377",−0.2%
same,KiNativ inhibition,"[2]; RSK1 domain1, RSK2 domain1, RSK3 domain1, Lys2, SEQ ID NO 379",−25.1%
same,KiNativ inhibition,"[2]; SRPK1, SRPK2, Lys1, SEQ ID NO 391",−38.7%
same,KiNativ inhibition,"[2]; TAO1, TAO3, Lys2, SEQ ID NO 396",87.1%
same,KiNativ inhibition,"[2]; Wnk1, Wnk2, Wnk3, Lys2, SEQ ID NO 406",−1.1%
same,KiNativ inhibition,"[2]; Wnk1, Wnk2, ATP Loop, SEQ ID NO 405",11.2%
same,KiNativ inhibition,"[2]; ZC1/HGK, ZC2/TNIK, ZC3/MINK, Lys2, SEQ ID NO 410",57.5%
same,KiNativ inhibition,"[2]; p38d, p38g, Lys2, SEQ ID NO 341",51.5%
